Source: patent publication US7261889B2, “Local anesthetic methods and kits” (Novalar Pharmaceuticals, Inc., priority 2000, dated 2007)
Entries after “also recorded” stand apart in the source; their conditions may differ. Counter-ions that a name gives are not always drawn.

Legend:
[1] = tested on: local anesthesia from 2% polocaine (mepivacaine hydrochloride) with levonordefrin in healthy, male human subjects; experiment: Human subjects study of local anesthesia reversal by LARA versus saline vehicle (bilateral injections); type: in vivo; conditions: three subjects; 0.05 mg/ml phentolamine-mesylate, 1.6 ml (0.08 mg)
Procedure: An injection of the physiological saline vehicle (without phentolamine-mesylate) served as the control. […] This was followed by injection of the phentolamine-mesylate containing local anesthetic reversal agent (LARA) into one side of the oral cavity, and injection of the saline vehicle (control) solution into the opposite side of the oral cavity. The time to reversal of the local anesthetic effect on both sides was then recorded to determine whether there is a difference between the two sides.
The local anesthetic used was 2% polocaine (mepivacaine hydrochloride) with levonordefrin (1:20,000=0.05 mg/ml) (levonordefrin injection, USP) (Astra USA, Inc., Westborough, Mass. 01581). Levonordefrin is a sympathomimetic amine with a pharmacological profile similar to that of epinephrine, but with a lower potency.
Three healthy, male human subjects, age 34-50, volunteered to have local anesthetic injected in the mouth bilaterally under the lip in an easily repeatable location. The exact time of each injection was recorded. The position chosen was above (apical) the prominence of the root of the upper cuspid teeth. This is a common site selected to numb the cuspids, lateral incisors and upper lip. The volume of the local anesthetic injected was 1.7+0.1 ml on each side of the mouth. […]

[2] = tested on: patients pretreated with lignocaine admixed with epinephrine; conditions: 0.5-1.5 mg; '714 patent Example 1, Table 1; cited from earlier work
patients = conditions: systemic doses; usually in association with marked hypotensive episodes; cited from earlier work

Structure (SMILES)	local anesthesia reversal compared to saline side (in words) [1]	side-effects [1]	duration of anesthesia [2]	side effects reported following administration (patients)
Cc1ccc(N(CC2=NCCN2)c2cccc(O)c2)cc1 [phentolamine-mesylate, phentolamine mesylate]	highly effective anesthesia reversal	no side-effects of any kind were noted; also recorded: without any side-effects whatsoever		
Cc1ccc(N(CC2=NCCN2)c2cccc(O)c2)cc1 [phentolamine]			reduction in the duration of anesthesia with increasing amounts	Myocardial infarction, cerebrovascular spasm, and cerebrovascular occlusion have been reported
